From the CheMixHub ionic liquid set

Experiment: xn = mol fraction of the nth substance listed
Conditions: for electrical conductivity: 100 kPa, x1 = 0.24

CCCC[n+]1ccn(C)c1.N#C[S-] + CCCCO
101 kPa
Conditions	viscosity [mPa·s]
298.15 K, x2 = 0.5596	11.2
298.15 K, x2 = 0.6222	9.23
298.15 K, x2 = 0.79	5.28
298.15 K, x2 = 0.9738	2.9
308.15 K, x2 = 0.6834	5.8
318.15 K, x2 = 0.0911	19
318.15 K, x2 = 0.5596	6.55
318.15 K, x2 = 0.6222	5.5
318.15 K, x2 = 0.6834	4.59
318.15 K, x2 = 0.9738	1.81
328.15 K, x2 = 0.4552	6.86
328.15 K, x2 = 0.6834	3.72
338.15 K, x2 = 0.5596	4.19
338.15 K, x2 = 0.6222	3.6
348.15 K, x2 = 0.3317	5.78
348.15 K, x2 = 0.8975	1.34
348.15 K, x2 = 0.9738	1

O=S(=O)([N-]S(=O)(=O)C(F)(F)F)C(F)(F)F.O=S(=O)([N-]S(=O)(=O)C(F)(F)F)C(F)(F)F.[Zn+2] + CCCC[N+]1(C)CCCC1.O=S(=O)([N-]S(=O)(=O)C(F)(F)F)C(F)(F)F
Conditions	electrical conductivity [S/m]
356.5 K	0.306
409.4 K	1.24

O=S1(=O)CCCC1 + CCCC[N+]1(C)CCCC1.O=S(=O)([N-]S(=O)(=O)C(F)(F)F)C(F)(F)F
101.33 kPa, x2 = 0.5
Conditions	viscosity [mPa·s]
303.15 K	25.8
313.15 K	18.6
323.15 K	12.9
333.15 K	9.7
343.15 K	8
353.25 K	6.7

C=CC(=O)OC + CCCC[n+]1ccn(C)c1.F[B-](F)(F)F
101 kPa
Conditions	viscosity [mPa·s]
293.15 K, x2 = 0.1387	2.163
293.15 K, x2 = 0.9242	108.1
298.15 K, x2 = 0	0.465
303.15 K, x2 = 0.3354	6.16
303.15 K, x2 = 0.4317	11.33
308.15 K, x2 = 0.8484	39.89
313.15 K, x2 = 0	0.36
318.15 K, x2 = 0	0.334
318.15 K, x2 = 0.6532	12.51
318.15 K, x2 = 0.9242	31.5

OCC(F)(F)F + CCCC[n+]1ccn(C)c1.F[B-](F)(F)F
viscosity [mPa·s], 101 kPa
Conditions	x1 = 0.3913	x1 = 0.5788	x1 = 0.7238	x1 = 0.8247	x1 = 0.9013	x1 = 0.9587	x1 = 1
278.15 K	42.31	15.82	7.33	4.71	3.71	3.42	3.28
283.15 K	34.09	13.39	6.37	4.13	3.25	2.97	2.81
288.15 K	27.93	11.45	5.59	3.66	2.88	2.6	2.42
293.15 K	23.21	9.89	4.95	3.27	2.56	2.29	2.11
298.15 K	19.52	8.63	4.41	2.93	2.3	2.03	1.84
303.15 K	16.61	7.59	3.96	2.65	2.07	1.81	1.62
308.15 K	14.28	6.72	3.57	2.41	1.88	1.62	1.43
313.15 K	12.39	6	3.25	2.21	1.71	1.46	1.27
318.15 K	10.84	5.39	2.97	2.02	1.56	1.33	1.13
323.15 K	9.56	4.87	2.72	1.87	1.43	1.21	1.02
328.15 K	8.49	4.42	2.5	1.72	1.31	1.1	0.925
333.15 K	7.59	4.03	2.31	1.59	1.21	1	0.824

OCC(F)(F)F + CCCC[n+]1ccn(C)c1.F[P-](F)(F)(F)(F)F
viscosity [mPa·s], 101 kPa
Conditions	x1 = 0.4632	x1 = 0.5646	x1 = 0.7299	x1 = 0.8308	x1 = 0.9417	x1 = 1
278.15 K	51.3	27.28	10.69	6.23	3.8	3.28
283.15 K	40.66	22.32	8.93	5.29	3.26	2.81
288.15 K	32.71	18.39	7.58	4.56	2.84	2.42
293.15 K	26.74	15.36	6.51	3.97	2.49	2.11
298.15 K	22.17	13	5.65	3.49	2.21	1.84
303.15 K	18.63	11.13	4.95	3.09	1.96	1.62
308.15 K	15.84	9.64	4.38	2.76	1.76	1.43
313.15 K	13.61	8.42	3.9	2.49	1.57	1.27
318.15 K	11.81	7.42	3.49	2.25	1.41	1.13
323.15 K	10.34	6.59	3.15	2.05	1.28	1.02
328.15 K	9.12	5.89	2.85	1.88	1.18	0.925
333.15 K	8.1	5.3	2.62	1.73	1.07	0.824
